Source: patent US4175125A, “Method for treating methicillin resistant staphylococcus aureus” (Eli Lilly and Company, priority 1978, dated 1979)
Values after ≈ are worked out from the molar mass of the structure shown.

Experiments:
[1] = tested on: Staphylococcus aureus cultures; experiment: Agar dilution susceptibility test, phenylthioacetyl cephalosporins vs methicillin resistant S. aureus (Example 9); assay type: cell-based; conditions: for MIC: Staphylococcus aureus, read-out: MIC
From the text: This example compares the antibiotic activities of three known compounds, methicillin, cephalothin, and cephaloridine, with three compounds from the above examples, in terms of minimum inhibitory concentration (MIC) values in microgram/milliliter units against various isolates of Staphylococcus aureus cultures. The culture numbers and the procedures used to obtain the reported data are disclosed by W. E. Wick and D. A. Preston in their article "Heterogeneous Methicillin-Resistant Staphylococcus Aureus" which appeared in Progress in Antimicrobial And Anticancer Chemotherapy, Proceedings of the 6th International Congress of Chemotherapy, Volume, 1, U. of Tokyo Press, Tokyo, (1970). In these agardilution susceptibility tests, the inocula were diluted to 10^3 bacteria per spot. Cultures 3055 (benzylpenicillin sensitive) and H232 (benzylpenicillin-resistant) are controls. The remaining cultures are methicillin-resistant, and, except for 3136, are clinical isolates. Culture 3136 is a 4th transfer laboratory selected mutant.

[2] = tested on: Staphylococcus aureus cultures; experiment: Broth dilution MIC in trypticase soy broth, low and high NaCl (Example 10); assay type: cell-based; conditions: Staphylococcus aureus, TSB, read-out: MIC
Protocol: This example compares the antibiotic activities of methicillin, cephalothin and cephaloridine with the compounds of Examples 1, 2 and 3, in broth dilution tests. The MIC values, in μg/ml., are against the same Staphylococcus aureus cultures described in Example 9, except that in this example the cultures were grown in trypticase soy broth (TSB). Growing the cultures in two broth cultures, one having a low (0.5 percent) sodium chloride content and one having a high (5.0 percent) sodium chloride content is said to assist in identifying the methicillin-resistant cultures from those which are not methicillin-resistant. […] See Chabbert, Y. A., 1967 Postgrad. Med. J., 43 (suppl); 40-46. One expects that similar changes in MIC values for this type of culture to other β-lactam antibiotics, e.g., various penicillins and cephalosporins, to have similar implications. […] That is, methicillin-resistant S.aureus cultures are susceptible to the cephalosporin antibiotics used in this invention.

[3] = culture 3130, table part marked b
[4] = culture 3130, table part marked c
[5] = culture 3131, table part marked b
[6] = culture 3131, table part marked c
[7] = culture 3134, table part marked b
[8] = culture 3134, table part marked c
[9] = culture 3135, table part marked b
[10] = culture 3135, table part marked c
[11] = culture 3136, table part marked b
[12] = culture 3136, table part marked c
[13] = culture 3137, table part marked b
[14] = culture 3137, table part marked c
[15] = culture 3138, table part marked b
[16] = culture 3138, table part marked c
[17] = culture 3139, table part marked b
[18] = culture 3139, table part marked c
[19] = culture (Seattle) 966, table part marked b
[20] = culture (Seattle) 966, table part marked c
[21] = culture S61, table part marked b
[22] = culture S61, table part marked c

Compound: CC(=O)OCC1=C(C(=O)O)N2C(=O)C(NC(=O)CSc3ccc(Cl)c(Cl)c3)C2SC1 (stereo not drawn) [Example 1, 7-(3,4-dichlorophenylthioacetamido)cephalosporanic acid]
- MIC ([1]; culture 3055 (control, benzylpenicillin sensitive), table part marked b): < 0.06 µg/mL
- MIC ([1]; culture 3055 (control, benzylpenicillin sensitive), table part marked c): < 0.06 µg/mL
- MIC [1, 3]: 0.5 µg/mL (≈ 1.02 µM)
- MIC [1, 4]: 1 µg/mL (≈ 2.04 µM)
- MIC [1, 5]: 1 µg/mL (≈ 2.04 µM)
- MIC [1, 6]: 1 µg/mL (≈ 2.04 µM)
- MIC ([1]; culture 3132, table part marked b): 0.5 µg/mL (≈ 1.02 µM)
- MIC ([1]; culture 3132, table part marked c): 0.25 µg/mL (≈ 0.509 µM)
- MIC ([1]; culture 3133, table part marked b): 0.5 µg/mL (≈ 1.02 µM)
- MIC ([1]; culture 3133, table part marked c): 1 µg/mL (≈ 2.04 µM)
- MIC [1, 7]: 1 µg/mL (≈ 2.04 µM)
- MIC [1, 8]: 0.5 µg/mL (≈ 1.02 µM)
- MIC [1, 9]: 0.5 µg/mL (≈ 1.02 µM)
- MIC [1, 10]: 0.25 µg/mL (≈ 0.509 µM)
- MIC [1, 11]: 0.5 µg/mL (≈ 1.02 µM)
- MIC [1, 12]: 0.5 µg/mL (≈ 1.02 µM)
- MIC [1, 13]: 2 µg/mL (≈ 4.07 µM)
- MIC [1, 14]: 2 µg/mL (≈ 4.07 µM)
- MIC [1, 15]: 1 µg/mL (≈ 2.04 µM)
- MIC [1, 16]: 0.5 µg/mL (≈ 1.02 µM)
- MIC [1, 17]: 1 µg/mL (≈ 2.04 µM)
- MIC [1, 18]: 0.25 µg/mL (≈ 0.509 µM)
- MIC [1, 19]: 0.5 µg/mL (≈ 1.02 µM)
- MIC [1, 20]: 0.25 µg/mL (≈ 0.509 µM)
- MIC ([1]; culture H232 (control, benzylpenicillin-resistant), table part marked b): < 0.06 µg/mL
- MIC ([1]; culture H232 (control, benzylpenicillin-resistant), table part marked c): < 0.06 µg/mL
- MIC ([1]; culture Kavarmark 1138501, table part marked b): 0.5 µg/mL (≈ 1.02 µM)
- MIC ([1]; culture Kavarmark 1138501, table part marked c): 0.5 µg/mL (≈ 1.02 µM)
- MIC [1, 21]: 0.5 µg/mL (≈ 1.02 µM)
- MIC [1, 22]: 1 µg/mL (≈ 2.04 µM)
- effectiveness in in vitro tests vs methicillin, cephalothin and cephaloridine ([1]; various cultures of methicillin-resistant Staphylococcus aureus): substantially more effective than methicillin, cephalothin, and cephaloridine
- MIC ([2]; culture 3055 (control), table part marked b): 0.06 µg/mL (≈ 0.122 µM)
- MIC ([2]; culture 3055 (control), table part marked c): 0.06 µg/mL (≈ 0.122 µM)
- MIC [2, 3]: 0.5 µg/mL (≈ 1.02 µM)
- MIC [2, 4]: 4 µg/mL (≈ 8.14 µM)
- MIC [2, 5]: 1 µg/mL (≈ 2.04 µM)
- MIC [2, 6]: 2 µg/mL (≈ 4.07 µM)
- MIC ([2]; culture 3132 (first column so headed), table part marked b): < 0.5 µg/mL
- MIC ([2]; culture 3132 (first column so headed), table part marked c): 2 µg/mL (≈ 4.07 µM)
- MIC ([2]; culture 3132 (second column so headed), table part marked b): < 0.5 µg/mL
- MIC ([2]; culture 3132 (second column so headed), table part marked c): 2 µg/mL (≈ 4.07 µM)
- MIC [2, 7]: 1 µg/mL (≈ 2.04 µM)
- MIC [2, 8]: 4 µg/mL (≈ 8.14 µM)
- MIC [2, 9]: < 0.5 µg/mL
- MIC [2, 10]: 2 µg/mL (≈ 4.07 µM)
- MIC [2, 11]: 0.5 µg/mL (≈ 1.02 µM)
- MIC [2, 12]: 2 µg/mL (≈ 4.07 µM)
- MIC [2, 13]: 2 µg/mL (≈ 4.07 µM)
- MIC [2, 14]: 4 µg/mL (≈ 8.14 µM)
- MIC [2, 15]: 1 µg/mL (≈ 2.04 µM)
- MIC [2, 16]: 1 µg/mL (≈ 2.04 µM)
- MIC [2, 17]: 1 µg/mL (≈ 2.04 µM)
- MIC [2, 18]: 1 µg/mL (≈ 2.04 µM)
- MIC [2, 19]: 0.5 µg/mL (≈ 1.02 µM)
- MIC [2, 20]: 2 µg/mL (≈ 4.07 µM)
- MIC ([2]; culture H232 (control), table part marked b): 0.12 µg/mL (≈ 0.244 µM)
- MIC ([2]; culture H232 (control), table part marked c): 0.25 µg/mL (≈ 0.509 µM)
- MIC ([2]; culture Kavarnick 1138501, table part marked b): 0.5 µg/mL (≈ 1.02 µM)
- MIC ([2]; culture Kavarnick 1138501, table part marked c): 2 µg/mL (≈ 4.07 µM)
- MIC [2, 21]: 2 µg/mL (≈ 4.07 µM)
- MIC [2, 22]: 2 µg/mL (≈ 4.07 µM)
- MIC ([2]; culture S, table part marked b): 2 µg/mL (≈ 4.07 µM)
- MIC ([2]; culture S, table part marked c): 2 µg/mL (≈ 4.07 µM)
